Source: US20170246160A1, “SOLID PHARMACEUTICAL COMPOSITION” (KYORIN PHARMACEUTICAL CO., LTD., priority 2014, published 2017)

Assay: Dissolution test (paddle method, Japanese Pharmacopoeia Sixteenth Edition), first fluid for dissolution test
Format: physicochemical
Conditions: for dissolution rate in the first fluid for dissolution test: 30 minutes after initiation, paddle 50 rpm, 37° C., 900 mL, hydrochloride
Method: In order to evaluate each of the compositions (tablets) in Example 1 and Comparative Example 1, a dissolution test was performed in accordance with dissolution apparatus 2 (paddle method) in the Japanese Pharmacopoeia Sixteenth Edition. Detailed conditions of the dissolution test are as follows.
In order to evaluate each of the compositions (tablets) in Example 2 and Comparative Example 2, a dissolution test was performed in the same manner as in Test Example 1.

[1] = coated tablets of Example 1 / Comparative Example 1 (direct compression), FIG. 5

## COc1c(N2C[C@H](CNC3CC3)[C@H](F)C2)c(F)cc2c(=O)c(C(=O)O)cn(CCF)c12.Cl [Compound 1, 7-[(3S,4S)-3-((cyclopropylamino)methyl)-4-fluoropyrrolidine-1-yl]-6-fluoro-1-(2-fluoroethyl)-8-methoxy-4-oxo-1,4-dihydroquinoline-3-carboxylic acid hydrochloride]
[1]
  dissolution rate in the first fluid for dissolution test: at most 25%
Coated tablets of Example 2 / Comparative Example 2 (wet granulation method), FIG. 6
  dissolution rate in the first fluid for dissolution test: at most 30%

## COc1c(N2C[C@H](CNC3CC3)[C@H](F)C2)c(F)cc2c(=O)c(C(=O)O)cn(CCF)c12.Cl [Compound 2, 7-[(3S,4S)-3-{(cyclopropylamino)methyl}-4-fluoropyrrolidine-1-yl]-6-fluoro-1-(2-fluoroethyl)-8-methoxy-4-oxo-1,4-dihydroquinoline-3-carboxylic acid hydrochloride]
[1]
  dissolution rate in the first fluid for dissolution test: ≥ 80%
Coated tablets of Example 2 / Comparative Example 2 (wet granulation method), FIG. 6, listed as B-form crystal
  dissolution rate in the first fluid for dissolution test: ≥ 80%
Tablets of Example 1 vs Comparative Example 1, FIG. 5
  dissolution rate in the first fluid for dissolution test compared with the tablet containing Compound 1 (A-form crystal): higher
